Source: US20020018808A1, “Vaccines against sterols” (priority 1990, published 2002)

Tests used:
[1] = ELISA of antisera from mice immunized with sterol-containing liposomes; assay type: in vivo, BALB/c mice
Method: Accordingly, the following study is designed to assess the immunogenicity of different cholesterol or sterol analogs for use in a vaccine to prevent hyper-cholesterolemia. Briefly summarized, several sterols such as cholesterol, vitamin D2, cholesteryl oleate, cholesteryl myristate, 4-cholesten-3-one, and phosphatidylcholesterol (17β-Linkage) and (3β-Linkage), are incorporated into liposomes containing DPMC (1.8), DMPG (0.2), Chol (1.5) (mol/mol) and lipid A (25 to 200 μg/mol, preferably 25 μg/mol phospholipid) so that the phospholipid concentration remains constant. These liposomes are inoculated into BALB/c mice i.p. at day 0 and day 14. Mice are bled at day 14 and day 21 and antibodies specific for the antigen are assessed by ELISA using the antigen itself or crystalline cholesterol.
Multilamellar vesicles (“MLV”) are produced by aliquotting DMPC:DMPG:Cholesterol, 9:1:7.5 (mol/mol), and lipid A at 25 to 200 μg/Imol phospholipid into a round bottom flask. The mixture is rotary evaporated, desiccated, and hydrated in sterile, deionized water. Lipids are lyophilized and reconstituted in PBS to 10 mM with respect to phospholipids and assayed for total phosphorous.
Male BALB/c mice, 6-8 weeks old, are bled and then immunized with 0.1 ml liposomes containing 1 μmol total phospholipid and 25-200 μg monophosphoryl lipid A ip. At 14 day intervals, mice are bled and sera collected. […]

[2] = Complement-dependent immune lysis assay of antisera (glucose release from liposomes); set-up: species or system BALB/c mice
Method: This assay measures antibody-mediated, complement-dependent release of encapsulated glucose from liposomes. Released glucose is measured spectrophotometrically using a Tris-buffered assay reagent containing hexokinase, glucose-6-phosphate dehydrogenase, ATP, and NADP. This particular assay is a measurement of antibody functional activity, rather than particle (antibody) detection.
In addition, the antisera from mice vaccinated with phosphatidylcholesterol could detect cholesterol present in liposomes containing 43% cholesterol as well as 71% cholesterol, and were equally as active against liposomes containing phosphatidylcholesterol in a complement-dependent immune lysis assay. […] In the above antibody-dependent immune lysis assays, a release greater than 5% indicates a positive reaction.
The test liposomes contained or lacked 5 mol % phosphatidylcholesterol. The antisera were tested using a complement-dependent immune lysis assay, wherein a release greater than 5% indicated a positive reaction.

Row | SMILES | Antibody isotype induced ([1]; mice, detected by ELISA (FIG. 8)) | Reactivity of generated antibody ([1]; compound of Example VI in liposomes) | Glucose release of test liposomes ([2]; immune lysis assay, liposomes composed of 5% phosphatidylcholesterol (17β-Linkage)) | Liposome integrity in antibody-mediated immune lysis assay ([2]; more than 5 mol % phosphatidylcholesterol in liposomes containing 43 mol % cholesterol)
1 | CC(C)CCC[C@@H](C)[C@H]1CC[C@H]2[C@@H]3CC=C4C[C@@H](O)CC[C@]4(C)[C@H]3CC[C@]12C [cholesterol] | induce primarily IgM |  |  | 
2 | CCCCCCCCCCCCCC(=O)OCC(COP(=O)(O)OCCNC(=O)[C@H]1CC[C@H]2[C@@H]3CC=C4C[C@@H](O)CC[C@]4(C)[C@H]3CC[C@]12C)OC(=O)CCCCCCCCCCCCC (stereo partly drawn) [phosphatidylcholesterol (17β-Linkage), N-(5-Androsten-3β-OL-17β-amido) dimyristoylphosphatidylethanolamine] |  | IgG antibody that reacts with crystalline cholesterol, 43% cholesterol liposomes, and 71% liposomes | glucose release equivalent to liposomes containing 43% and 71% cholesterol | leaky liposomes
